Columns and labels:
[1] = target: T1, human OGA (hOGA) (Homo sapiens, UniProt O60502); test: Fluorescence polarization displacement of GlcNAcstatin BF from hOGA; type: binding; conditions: FP displacement, 50 nM GlcNAcstatin BF, 250 nM hOGA, TBS pH 7.5
T1 sequence (O60502 60-336 limits assumed): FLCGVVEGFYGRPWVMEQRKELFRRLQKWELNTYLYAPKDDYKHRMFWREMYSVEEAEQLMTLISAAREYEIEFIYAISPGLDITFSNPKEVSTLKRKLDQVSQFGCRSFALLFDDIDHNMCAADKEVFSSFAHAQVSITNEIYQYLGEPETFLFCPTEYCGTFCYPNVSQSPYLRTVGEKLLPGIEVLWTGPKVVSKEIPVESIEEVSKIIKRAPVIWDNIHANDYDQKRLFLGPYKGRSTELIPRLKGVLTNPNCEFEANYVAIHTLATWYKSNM

[2] = target: CpOGA (Clostridium perfringens, UniProt Q0TR53); test: biochemical; type: binding
Sequence of CpOGA (Q0TR53 31-1001 limits assumed): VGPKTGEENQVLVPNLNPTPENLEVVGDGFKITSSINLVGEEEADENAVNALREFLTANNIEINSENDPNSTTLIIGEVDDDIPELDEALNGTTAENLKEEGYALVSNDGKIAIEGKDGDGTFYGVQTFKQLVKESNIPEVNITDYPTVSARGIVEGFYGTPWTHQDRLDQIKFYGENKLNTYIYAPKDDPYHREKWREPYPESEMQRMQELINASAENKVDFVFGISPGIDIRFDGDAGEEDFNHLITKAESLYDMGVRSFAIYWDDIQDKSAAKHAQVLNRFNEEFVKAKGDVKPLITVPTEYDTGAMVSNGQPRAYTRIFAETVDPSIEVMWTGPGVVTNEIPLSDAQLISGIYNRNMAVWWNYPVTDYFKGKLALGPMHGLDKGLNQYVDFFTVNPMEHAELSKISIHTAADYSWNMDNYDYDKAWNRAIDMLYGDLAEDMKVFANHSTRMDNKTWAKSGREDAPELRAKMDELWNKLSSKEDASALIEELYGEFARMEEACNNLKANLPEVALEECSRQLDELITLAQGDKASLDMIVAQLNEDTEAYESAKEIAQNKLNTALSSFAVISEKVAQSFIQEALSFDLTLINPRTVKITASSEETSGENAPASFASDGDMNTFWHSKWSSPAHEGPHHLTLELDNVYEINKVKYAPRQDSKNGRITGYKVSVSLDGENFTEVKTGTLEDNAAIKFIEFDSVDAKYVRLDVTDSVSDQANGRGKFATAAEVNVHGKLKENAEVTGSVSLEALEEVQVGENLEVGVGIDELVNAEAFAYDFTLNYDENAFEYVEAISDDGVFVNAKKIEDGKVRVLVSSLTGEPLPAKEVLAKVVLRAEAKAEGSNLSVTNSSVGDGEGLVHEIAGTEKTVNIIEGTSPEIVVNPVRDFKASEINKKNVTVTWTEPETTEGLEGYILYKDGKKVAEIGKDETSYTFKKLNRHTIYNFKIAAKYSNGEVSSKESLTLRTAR

| Structure (SMILES) | Ki [1] [µM] | Ki [2] [µM] |
| --- | --- | --- |
| CC(=O)N[C@H]1c2nc(CCc3ccccc3)cn2[C@H](CO)[C@@H](O)[C@@H]1O [GlcNAcstatin B] | 0.0232 |  |
| FC(F)(F)C1=NCCNC=C1 [5TFD, 5-(trifluoromethyl)-2,3-dihydro-1H-1,4-diazepine] |  | 146 |

— paper PMC7611149 (ACS chemical biology, 2018)
